# According to ChEMBL document CHEMBL1139298, “Synthesis and biological evaluation of novel 2,4,5-substituted pyrimidine derivatives for anticancer activity” (Bioorg Med Chem Lett, 2009):
# pIC50: −log10 of the molar value.
# Key:
# Bel-7402 = assay: Cytotoxicity against human Bel7402 cells after 72 hrs by SRB assay; assay type: functional, cell-based; details: Bel-7402, 72 h
# [1] = Cytotoxicity against human WI38 cells after 72 hrs by SRB assay; assay type: cell-based; details: WI-38, 72 h
# SK-BR-3 = assay: Cytotoxicity against human SKBR3 cells after 72 hrs by SRB assay; assay type: functional, cell-based; details: SK-BR-3, 72 h
# HT-29 = assay: cells; details: Homo sapiens, HT-29, 72 h
# Description: Cytotoxicity against human HT-29 cells after 72 hrs by SRB assay
# SGC-7901 = assay: Cytotoxicity against human SGC7901 cells after 72 hrs by SRB assay; assay type: functional, cell-based; details: SGC-7901, 72 h
# NCI-H460 = assay: Cytotoxicity against human NCI-H460 cells after 72 hrs by SRB assay; assay type: functional, cell-based; details: NCI-H460, 72 h
# Calu-3 = assay: Cytotoxicity against human Calu3 cells after 72 hrs by SRB assay; assay type: functional, cell-based; details: Calu-3, 72 h
SMILES,pIC50 (Bel-7402),pIC50 [1],further results
Nc1ncc(-c2ccccc2F)c(-c2ccccc2O)n1,< 5.00,< 5.00,
CS(=O)(=O)CCNCc1ccc(-c2ccc3ncnc(Nc4ccc(OCc5cccc(F)c5)c(Cl)c4)c3c2)o1 [LAPATINIB],,< 5.00,pIC50 (SK-BR-3): 7.77
COc1cc(-c2cnc(C)nc2-c2ccccc2O)cc(OC)c1OC,< 5.00,< 5.00,
Cc1ncc(-c2ccccc2F)c(-c2ccccc2O)n1,< 5.00,< 5.00,
CNC(=O)c1ncc(-c2ccc(OC)cc2)c(-c2ccccc2O)n1,< 5.00,< 5.00,
Nc1ncc(-c2ccc(OCCN3CCCC3)cc2)c(-c2ccccc2O)n1,< 5.00,< 5.00,
Cc1ncc(-c2ccc(N)cc2)c(-c2ccccc2O)n1,< 5.00,< 5.00,
Cc1ncc(-c2cccc(C(F)(F)F)c2)c(-c2ccccc2O)n1,< 5.00,< 5.00,
Nc1ncc(-c2ccc(OC(F)(F)F)cc2)c(-c2ccccc2O)n1,< 5.00,< 5.00,
Nc1ncc(-c2ccc(OCCCOCc3ccccc3)cc2)c(-c2ccccc2O)n1,< 5.00,< 5.00,
Cc1ncc(-c2ccc(Cl)cc2)c(-c2ccccc2O)n1,< 5.00,< 5.00,
COc1cccc2c1C(=O)c1c(O)c3c(c(O)c1C2=O)C[C@@](O)(C(=O)CO)C[C@@H]3O[C@H]1C[C@H](N)[C@H](O)[C@H](C)O1 [DOXORUBICIN],7.68,< 5.00,pIC50 (HT-29): 7.74
Cc1ncc(-c2ccc(NC(=O)OC(C)(C)C)cc2)c(-c2ccccc2O)n1,< 5.00,< 5.00,
Nc1ncc(-c2cccc(C(F)(F)F)c2)c(-c2ccccc2O)n1,< 5.00,< 5.00,
Nc1ncc(-c2ccc(O)cc2)c(-c2ccccc2O)n1,< 5.00,< 5.00,
COc1cc(-c2cnc(N)nc2-c2ccccc2O)cc(OC)c1OC,< 5.00,< 5.00,
CC(=O)O[C@@]12CO[C@@H]1C[C@H](O)[C@@]1(C)C(=O)[C@H](O)C3=C(C)[C@@H](OC(=O)[C@H](O)[C@@H](NC(=O)OC(C)(C)C)c4ccccc4)C[C@@](O)([C@@H](OC(=O)c4ccccc4)[C@H]21)C3(C)C [DOCETAXEL],,< 5.00,pIC50 (SGC-7901): 8.08; pIC50 (NCI-H460): 8.01; pIC50 (Calu-3): 7.00
COC(=O)c1ncc(-c2ccc(OC)cc2)c(-c2ccccc2O)n1,< 5.00,< 5.00,
Cc1ncc(-c2ccc(OC(F)(F)F)cc2)c(-c2ccccc2O)n1,< 5.00,< 5.00,
